Assay results as given in US20250296971A1, “GASTRIC INHIBITORY PEPTIDE RECEPTOR LIGANDS” (priority 2021, published 2025).
*1 amine or outer side, *2 acyl side, *3 side chain or, on linkers, in order; H or OH if unused. Where a SMILES comes first, the peptide text is derived from it. Bridges are numbered along the chain shown (N, C = ends). [ ]: non-standard residue; d: D form. The star is where a group is joined. X17 = O=C(CC[C@H](NC(=O)CN1CCN2CCN3CCN(CC1)CC(=O)[O][Lu]([O]C(=O)C2)[O]C(=O)C3)C(=O)*)NC[C@H](O)[C@@H](O)[C@H](O)[C@H](O)CO; X20 = O=C(CC[C@H](NC(=O)CN1CCN2CCN3CCN(CC1)CC(=O)[O][Ga]([O]C(=O)C2)[O]C(=O)C3)C(=O)*)NC[C@H](O)[C@@H](O)[C@H](O)[C@H](O)CO; DOTA(Lu) = O=C1CN2CCN3CCN(CC(=O)*)CCN(CC2)CC(=O)[O][Lu]([O]1)[O]C(=O)C3; X27 = O=C1CN2CCN3CCN(CC(=O)*)CCN(CC2)CC(=O)[O][Eu]([O]1)[O]C(=O)C3; NH(1-deoxy-D-glucityl) = OC[C@@H](O)[C@@H](O)[C@H](O)[C@@H](O)CN*; Trp(5-Cl) = N[C@@H](Cc1c[nH]c2ccc(Cl)cc12)C(=O)O; Pyridine(2,6-diCH2) = c1cc(C[*:1])nc(C[*:2])c1; Pro(4R-NH2) = N[C@H]1CN[C@H](C(=O)O)C1; Glutaryl = O=C(CCCC(=O)[*:2])[*:1]; Hyp = O=C(O)[C@@H]1C[C@@H](O)CN1; X1 = O=C(CN1CCC(N[*:1])CC1)[*:2]; Api = NC1(C(=O)O)CCNCC1; Thp = NC1(C(=O)O)CCOCC1

Molecular target: T1, GIPR (CHO-K1-hGIPR cells) (Homo sapiens, UniProt P48546)
T1 construct: host or cells: CHO-K1
T1 sequence (P48546 22-466): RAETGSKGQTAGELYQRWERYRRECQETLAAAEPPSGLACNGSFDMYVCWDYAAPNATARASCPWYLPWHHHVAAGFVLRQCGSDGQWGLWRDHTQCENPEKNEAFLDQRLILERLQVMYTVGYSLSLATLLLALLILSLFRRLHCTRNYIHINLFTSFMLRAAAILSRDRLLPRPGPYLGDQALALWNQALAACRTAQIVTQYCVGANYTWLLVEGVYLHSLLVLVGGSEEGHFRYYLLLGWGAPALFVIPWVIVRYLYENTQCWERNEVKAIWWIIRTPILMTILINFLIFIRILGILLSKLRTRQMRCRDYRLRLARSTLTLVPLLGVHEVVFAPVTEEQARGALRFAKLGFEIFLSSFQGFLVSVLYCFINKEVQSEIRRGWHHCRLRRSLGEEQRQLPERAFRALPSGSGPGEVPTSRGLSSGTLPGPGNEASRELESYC
Assay: FACS binding assay
Settings: pIC50 Category, competition with 20 nM GIP-057, 4° C., 1 hour
Procedure, shortened: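 CHO-K1 cells stably expressing human GIPR were detached with Accutase, suspended at 500.000 cells per mL in PBS with 1% FCS, and washed ice-cold. Bound peptide was detected with 1 μg/mL APC-streptavidin for 30 min on ice.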

CC[C@H](C)[C@@H]1NC(=O)[C@H](CC(C)C)NC(=O)C2(CCN(C(=O)[C@H](CCC(=O)NC[C@H](O)[C@@H](O)[C@H](O)[C@H](O)CO)NC(=O)CN3CCN4CCN5CCN(CC3)CC(=O)[O][Ga]([O]C(=O)C4)[O]C(=O)C5)CC2)NC(=O)[C@@H](NC(=O)[C@@H](CC(C)C)NC(=O)[C@H](CCC(=O)O)NC(=O)[C@@H]2C[C@@H](N)CN2C(=O)[C@H](Cc2c[nH]c3ccc(Cl)cc23)NC(=O)[C@H](Cc2c[nH]c3ccccc23)NC(=O)[C@H](CC(=O)O)NC(=O)CN2CCC(NC(=O)CCCC(=O)NC[C@H](O)[C@@H](O)[C@H](O)[C@H](O)CO)CC2)CSCc2cccc(n2)CSC[C@@H](C(=O)NC2CCN(CC(=O)N[C@H](CCC(=O)NC[C@H](O)[C@@H](O)[C@H](O)[C@H](O)CO)C(N)=O)CC2)NC1=O [GIP-059, AGLU-Glutar-APAc-Asp-Trp-5Clw-Tap-Glu-leu-[Cys(2Lut)-Apc(GaDOTA-glu(AGLU))-Leu-Ile-Cys]-APAc-glu(AGLU)-NH2] ({NH(1-deoxy-D-glucityl)-Glutaryl}-[X1]DW[Trp(5-Cl)][Pro(4R-NH2)]E[dL]C[Api](X20)LIC[X1][dE](NH(1-deoxy-D-glucityl))-NH2; linker 8-12 via Pyridine(2,6-diCH2))
IC50: < 10 nM

CC[C@H](C)[C@@H]1NC(=O)[C@H](CC(C)C)NC(=O)C2(CCN(C(=O)[C@H](CCC(=O)NC[C@H](O)[C@@H](O)[C@H](O)[C@H](O)CO)NC(=O)CN3CCN4CCN5CCN(CC3)CC(=O)[O][Lu]([O]C(=O)C4)[O]C(=O)C5)CC2)NC(=O)[C@@H](NC(=O)[C@@H](CC(C)C)NC(=O)[C@H](CCC(=O)O)NC(=O)[C@@H]2C[C@@H](N)CN2C(=O)[C@H](Cc2c[nH]c3ccc(Cl)cc23)NC(=O)[C@H](Cc2c[nH]c3ccccc23)NC(=O)[C@H](CC(=O)O)NC(=O)CN2CCC(NC(=O)CCCC(=O)NC[C@H](O)[C@@H](O)[C@H](O)[C@H](O)CO)CC2)CSCc2cccc(n2)CSC[C@@H](C(=O)NC2CCN(CC(=O)N[C@H](CCC(=O)NC[C@H](O)[C@@H](O)[C@H](O)[C@H](O)CO)C(N)=O)CC2)NC1=O [GIP-061, AGLU-Glutar-APAc-Asp-Trp-5Clw-Tap-Glu-leu-[Cys(2Lut)-Apc(LuDOTA-glu(AGLU))-Leu-Ile-Cys]-APAc-glu(AGLU)-NH2] ({NH(1-deoxy-D-glucityl)-Glutaryl}-[X1]DW[Trp(5-Cl)][Pro(4R-NH2)]E[dL]C[Api](X17)LIC[X1][dE](NH(1-deoxy-D-glucityl))-NH2; linker 8-12 via Pyridine(2,6-diCH2))
IC50: < 10 nM

CC[C@H](C)[C@@H]1NC(=O)[C@H](CC(C)C)NC(=O)C2(CCOCC2)NC(=O)[C@@H](NC(=O)[C@@H](CC(C)C)NC(=O)[C@H](CCC(=O)O)NC(=O)[C@@H]2C[C@@H](O)CN2C(=O)[C@H](Cc2c[nH]c3ccc(Cl)cc23)NC(=O)[C@H](Cc2c[nH]c3ccccc23)NC(=O)[C@H](CC(=O)O)NC(=O)CN2CCC(NC(=O)[C@@H](CCC(=O)NC[C@H](O)[C@@H](O)[C@H](O)[C@H](O)CO)NC(=O)CN3CCN4CCN5CCN(CC3)CC(=O)[O][Lu]([O]C(=O)C4)[O]C(=O)C5)CC2)CSCc2cccc(n2)CSC[C@@H](C(=O)NC2CCN(CC(=O)N[C@H](CCC(=O)NC[C@H](O)[C@@H](O)[C@H](O)[C@H](O)CO)C(N)=O)CC2)NC1=O [GIP-062, LuDOTA-glu(AGLU)-APAc-Asp-Trp-5Clw-Hyp-Glu-leu-[Cys(2Lut)-Thp-Leu-Ile-Cys]-APAc-glu(AGLU)-NH2] ({DOTA(Lu)}-[dE](NH(1-deoxy-D-glucityl))[X1]DW[Trp(5-Cl)][Hyp]E[dL]C[Thp]LIC[X1][dE](NH(1-deoxy-D-glucityl))-NH2; linker 9-13 via Pyridine(2,6-diCH2))
IC50: < 10 nM

CC[C@H](C)[C@@H]1NC(=O)[C@H](CC(C)C)NC(=O)C2(CCOCC2)NC(=O)[C@@H](NC(=O)[C@@H](CC(C)C)NC(=O)[C@H](CCC(=O)O)NC(=O)[C@@H]2C[C@@H](O)CN2C(=O)[C@H](Cc2c[nH]c3ccc(Cl)cc23)NC(=O)[C@H](Cc2c[nH]c3ccccc23)NC(=O)[C@H](CC(=O)O)NC(=O)CN2CCC(NC(=O)[C@@H](CCC(=O)NC[C@H](O)[C@@H](O)[C@H](O)[C@H](O)CO)NC(=O)CN3CCN4CCN5CCN(CC3)CC(=O)[O][Eu]([O]C(=O)C4)[O]C(=O)C5)CC2)CSCc2cccc(n2)CSC[C@@H](C(=O)NC2CCN(CC(=O)N[C@H](CCC(=O)NC[C@H](O)[C@@H](O)[C@H](O)[C@H](O)CO)C(N)=O)CC2)NC1=O [GIP-064, Europium-Complex of DOTA-glu(AGLU)-APAc-Asp-Trp-5Clw-Hyp-Glu-leu-[Cys(2Lut)-Thp-Leu-Ile-Cys]-APAc-glu(AGLU)-NH2] (X27-[dE](NH(1-deoxy-D-glucityl))[X1]DW[Trp(5-Cl)][Hyp]E[dL]C[Thp]LIC[X1][dE](NH(1-deoxy-D-glucityl))-NH2; linker 9-13 via Pyridine(2,6-diCH2))
IC50: < 10 nM
